According to PMC6152084, “Synthesis of New Hydrazone Derivatives for MAO Enzymes Inhibitory Activity” (Molecules : A Journal of Synthetic Chemistry and Natural …, 2017):
Marks after values point to notes of the source that are not given here.

Assays:
[1] = system: Salmonella typhimurium TA98; assay: Ames MPF genotoxicity test, TA98; assay type: cell-based; settings: for mutagenicity classification against TA98: in the presence and absence of metabolic activation (S9)
Method: (§1) An Ames MPF assay was performed to investigate the genotoxicity of the compounds 2a and 2b.
(§2) The genotoxicity of the compounds was determined by Ames assay as previously described using the Ames MPF 98/100 mutagenicity test sample kit (Xenometrix AG, Allschwil, Switzerland). This test was performed with Salmonella typhimurium strains TA98 (frameshift mutations) and TA100 (base-pair substitutions). Compounds was prepared in six different concentrations (5, 2.5, 1.25, 0.625, 0.3125, 0.156 mg/mL) which was between […] and 5000 µg/mL according to the previous guidelines in DMSO. In order to detect mutagenic potential, test performed with and without Aroclor™-1254 induced male Sprague-Dawley rat liver microsomal enzyme (S9) mix (Xenometrix AG). While the positive control for TA 98 without S9 mix was 2-nitrofluorene (2 μg/mL), 1 μg/mL of 2-aminoanthracene was positive control with S9 against TA 98. For TA100, 4-nitroquinoline N-oxide (0.1 μg/mL) was positive control without S9 mix and 2.5 μg/mL of 2-aminoanthracene was positive control. 4% DMSO solution was the solvent control. At the end of the experiment, revertant bacteria decreased the pH of solution and indicator medium colour was changed to yellow. Yellow wells were counted as positive and compared with the negative control. Fold induction over the negative control and fold induction over the baseline were calculated. Fold induction over the negative control is the ratio of the mean number of positive wells for the dose concentration divided by the mean number of positive wells for the zero dose (negative) control. Fold induction over the baseline is the ratio of the mean number of positive wells for the dose concentration divided by zero dose baseline. The zero dose baseline is obtained by adding one standard deviation to the mean number of positive wells of the zero dose control. Mutagenity was determined according to the criteria from previous studies. For a baseline value ≤ 3, significant increases between 2 and 3-fold the baseline were classified as weak mutagen, increases ≥ 3-fold the baseline were classified as mutagen. For a baseline was > 3, significant increases between 1.5 and 2.5-fold the baseline were classified as weak mutagen, and increases ≥ 2.5-fold the baseline, were classified as mutagen. In principle, for a mutagenic compound, at least two adjacent doses with significant increase or a significant increase at the highest dose level should be observed. All doses were compared according to Student’s t-test at p < 0.05 as statistically.

[2] = system: Salmonella typhimurium TA100; assay: Ames MPF genotoxicity test, TA100; assay type: cell-based; settings: for mutagenicity classification against TA100: with/without metabolic activation (S9)
Method: as §1, §2

hMAO-B = target: T1, hMAO-B (Homo sapiens, UniProt P27338); assay: MAO-B inhibition assay (in vitro fluorometric Amplex Red method); assay type: biochemical; settings: for inhibition at 1000 µM: 10^−3 M; for inhibition at 100 µM: 10^−4 M
T1 construct: purchased Sigma-Aldrich (Steinheim, Germany)
T1 sequence (P27338 1-520): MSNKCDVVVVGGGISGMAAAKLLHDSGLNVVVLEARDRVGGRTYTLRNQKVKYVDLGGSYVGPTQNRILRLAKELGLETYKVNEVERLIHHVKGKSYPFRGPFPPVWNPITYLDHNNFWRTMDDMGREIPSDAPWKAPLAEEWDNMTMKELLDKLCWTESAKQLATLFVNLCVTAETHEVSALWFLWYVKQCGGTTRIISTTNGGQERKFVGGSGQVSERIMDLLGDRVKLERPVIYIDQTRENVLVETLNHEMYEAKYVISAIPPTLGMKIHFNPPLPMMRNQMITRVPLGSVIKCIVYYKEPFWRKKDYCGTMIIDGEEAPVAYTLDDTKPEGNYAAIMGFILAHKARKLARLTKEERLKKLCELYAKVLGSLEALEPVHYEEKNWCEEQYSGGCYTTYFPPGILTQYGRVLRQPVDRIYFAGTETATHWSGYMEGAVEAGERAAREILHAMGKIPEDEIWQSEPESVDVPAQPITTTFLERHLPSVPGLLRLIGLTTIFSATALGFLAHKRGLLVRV

Row | SMILES | Revertants Fold Increase (Over Baseline) ([1]; TA 98, S9+, 0.156 mg/mL) | Revertants Fold Increase (Over Baseline) ([1]; TA 98, S9+, 1.25 mg/mL) | Revertants Fold Increase (Over Baseline) ([1]; TA 98, S9+, 2.5 mg/mL) | Revertants Fold Increase (Over Baseline) ([1]; TA 98, S9+, 5 mg/mL) | Revertants Fold Increase (Over Baseline) ([1]; TA 98, S9−, 0.156 mg/mL) | Revertants Fold Increase (Over Baseline) ([1]; TA 98, S9−, 0.3125 mg/mL) | Revertants Fold Increase (Over Baseline) ([1]; TA 98, S9−, 0.625 mg/mL) | Revertants Fold Increase (Over Baseline) ([1]; TA 98, S9−, 1.25 mg/mL) | Revertants Fold Increase (Over Baseline) ([1]; TA 98, S9−, 2.5 mg/mL) | Revertants Fold Increase (Over Baseline) ([1]; TA 98, S9−, 5 mg/mL) | mutagenicity classification against TA98 [1] | Revertants Fold Increase (Over Baseline) ([2]; TA 100, S9+, 0.156 mg/mL) | Revertants Fold Increase (Over Baseline) ([2]; TA 100, S9+, 0.3125 mg/mL) | Revertants Fold Increase (Over Baseline) ([2]; TA 100, S9+, 0.625 mg/mL) | Revertants Fold Increase (Over Baseline) ([2]; TA 100, S9+, 1.25 mg/mL) | Revertants Fold Increase (Over Baseline) ([2]; TA 100, S9+, 2.5 mg/mL) | Revertants Fold Increase (Over Baseline) ([2]; TA 100, S9+, 5 mg/mL) | Revertants Fold Increase (Over Baseline) ([2]; TA 100, S9−, 0.156 mg/mL) | Revertants Fold Increase (Over Baseline) ([2]; TA 100, S9−, 0.3125 mg/mL) | Revertants Fold Increase (Over Baseline) ([2]; TA 100, S9−, 0.625 mg/mL) | also measured
1 | CN1CCN(c2ccc(C=NNc3ccccc3)cc2)CC1 [Compound 2b, 1-(4-(4-Methylpiperazine-1-yl)benzylidene)-2-phenylhydrazine] | 0.85 | 0.37 | 0.37 | 0.12 | 1.24 * | 0.36 | 0.22 | 0.00 | 0.00 | 0.00 | not classified as a mutagen | 1.46 * | 1.40 | 1.46 | 0.79 | 0.12 * | 0.00 * | 0.40 | 0.17 * | 0.06 * | Fold-inductions over baseline ([1]; TA98 without S9, all concentrations): ≤ 1.5; Revertants Fold Increase (Over Baseline) ([2]; TA 100, S9−, 1.25 mg/mL): 0.03 *; Revertants Fold Increase (Over Baseline) ([2]; TA 100, S9−, 2.5 mg/mL): 0.00 *; Revertants Fold Increase (Over Baseline) ([2]; TA 100, S9−, 5 mg/mL): 0.00 *; Fold-inductions over baseline ([2]; TA100 with S9, each concentration): ≤ 1.5; mutagenicity classification against TA100 [2]: non-mutagenic; inhibition at 1000 µM (hMAO-B): 63.7 ± 1.03%; inhibition at 100 µM (hMAO-B): 43 ± 1.2%
2 | CC1CCCCN1c1ccc(/C=N/Nc2ccccc2)cc1 (stereo not drawn) [Compound 2a, 1-(4-(2-Methypiperidin-1-yl)benzylidene)-2-phenylhydrazine] | 0.92 | 0.75 | 0.75 | 1.17 | 0.42 | 0.08 * | 0.58 | 0.50 | 0.08 * | 0.17 * | non-mutagenic | 0.99 | 0.69 | 0.91 | 0.95 | 0.39 | 0.82 | 0.44 | 0.63 | 0.24 * | Revertants Fold Increase (Over Baseline) ([1]; TA 98, S9+, 0.3125 mg/mL): 0.83; Revertants Fold Increase (Over Baseline) ([1]; TA 98, S9+, 0.625 mg/mL): 0.58; Revertants Fold Increase (Over Baseline) ([2]; TA 100, S9−, 1.25 mg/mL): 0.19 *; Revertants Fold Increase (Over Baseline) ([2]; TA 100, S9−, 2.5 mg/mL): 0.05 *; Revertants Fold Increase (Over Baseline) ([2]; TA 100, S9−, 5 mg/mL): 0.00 *; Fold-inductions over baseline ([2]; TA100, absence and presence of S9, each concentration): less than 1.5; mutagenicity classification against TA100 [2]: not genotoxic; inhibition at 1000 µM (hMAO-B): 35 ± 0.766%; inhibition at 100 µM (hMAO-B): 22.1 ± 0.443%
